Source: US20230339970A1, “CASEIN KINASE 1 DELTA MODULATORS” (priority 2020, published 2023)

What was measured:
human CSNK1D = target: T1, human CSNK1D (Homo sapiens, UniProt P48730); assay: Whole Cell nBRET CSNK1D Binding Assay; conditions: living CHO cells stably expressing human CSNK1D tagged with nanoluciferase; NanoBret tracer 130 nM; 2 hours at 37 C
T1 construct: expressed in transfected cells

[1] = target: T2, human recombinant GST cleaved CSNK1D (Homo sapiens, UniProt P48730); assay: Purified Enzyme Assay (ADP-Glo CSNK1D Kinase Assay); assay type: biochemical; conditions: 2 nM CSNK1D; peptide substrate 150 μM; ATP 20 μM; 45 minutes at room temperature
T2 construct: GST (cleaved yes); purchased University of Dundee clone DU 19064
T2 sequence (P48730 whole entry): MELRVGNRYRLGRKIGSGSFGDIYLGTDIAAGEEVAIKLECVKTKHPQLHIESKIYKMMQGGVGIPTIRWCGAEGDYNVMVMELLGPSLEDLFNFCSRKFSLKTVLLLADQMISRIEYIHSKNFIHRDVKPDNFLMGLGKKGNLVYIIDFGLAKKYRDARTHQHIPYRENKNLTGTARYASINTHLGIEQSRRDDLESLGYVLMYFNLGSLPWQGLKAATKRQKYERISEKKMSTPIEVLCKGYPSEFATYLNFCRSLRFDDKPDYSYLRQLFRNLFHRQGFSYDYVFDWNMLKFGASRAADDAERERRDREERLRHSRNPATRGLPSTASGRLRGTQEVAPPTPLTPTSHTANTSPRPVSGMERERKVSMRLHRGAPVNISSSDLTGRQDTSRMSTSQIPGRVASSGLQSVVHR
Method in brief: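 Percent activity derived from ADP-Glo quantification of ADP produced. Reactions: compound dose-response with human recombinant GST-cleaved CSNK1D, ATP and substrate peptide PLSRTL-pS-VASLPGL, incubated 45 min at room temperature.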

T1 sequence (P48730 whole entry): as above

SMILES	IC50 (human CSNK1D) [nM]	IC50 [1] [nM]
Cc1cc(-c2c(-c3ccc(F)cn3)nn3c2OC(C)(C)C3)c2cn[nH]c2n1 [Example 368, 6-(5-Fluoro-2-pyridyl)-2,2-dimethyl-7-(6-methyl-1H-pyrazolo[3,4-b]pyridin-4-yl)-3H-pyrazolo[5,1-b]oxazole]	55	7
Cc1nc2[nH]nc(C)c2c(-c2c(-c3ccc(F)cn3)nn3c2CC2(C3)CC2(F)F)c1F (single isomer, unassigned) [Example 266, (*S)-1′1l′-Difluoro-3-(5-fluoro-3,6-dimethyl-1H-pyrazolo[3,4-b]pyridin-4-yl)-2-(5-fluoro-2-pyridyl)spiro[4,6-dihydropyrrolo[1,2-b]pyrazole-5,2′-cyclopropane]]	337	52
Fc1ccc(-c2nn3c(c2-c2c(F)cnc4[nH]ncc24)CCC3)nc1 [Example 221, 5-Fluoro-4-[2-(5-fluoro-2-pyridyl)-5,6-dihydro-4H-pyrrolo[1,2-b]pyrazol-3-yl]-1H-pyrazolo[3,4-b]pyridine]	460	7
Fc1ccc(-c2nn3c(c2-c2ccnc4[nH]ncc24)OCCCC3)nc1 [Example 218, 2-(5-Fluoro-2-pyridyl)-3-(1H-pyrazolo[3,4-b]pyridin-4-yl)-5,6,7,8-tetrahydropyrazolo[5,1-b][1,3]oxazepane]	239	12
COCC1(F)CCc2c(-c3cc(C(F)F)nc4[nH]ncc34)c(-c3ccc(F)cn3)nn2C1 (single isomer, unassigned) [Example 307, (*R)-6-(Difluoromethyl)-4-[6-fluoro-2-(5-fluoro-2-pyridyl)-6-(methoxymethyl)-5,7-dihydro-4H-pyrazolo[1,5-a]pyridin-3-yl]-1H-pyrazolo[3,4-b]pyridine]	> 10000	183

Results, then the molecule that gave them:

IC50 (human CSNK1D) [nM]	IC50 [1] [nM]	SMILES
71	18	Fc1ccc(-c2nn3c(c2-c2ccn4nccc4c2)CC[C@@H]2[C@H]3C2(F)F)cc1 (stereo in doubt) [Example 354, (5a*R,6a*S)-6,6-difluoro-2-(4-fluorophenyl)-3-(pyrazolo[1,5-a]pyridin-4-yl)-5,5a,6,6a-tetrahydro-4H-cyclopropa[e]pyrazolo[1,5-a]pyridine]
352	16	CC1COCc2c(-c3ccnc(CO)c3)c(-c3ccc(F)cc3)nn21 (stereo not drawn) [Example 90, (4-(2-(4-Fluorophenyl)-7-methyl-6,7-dihydro-4H-pyrazolo[5,1-c][1,4]oxazin-3-yl)pyridin-2-yl)methanol]
> 10000	231	CC1(O)COCc2c(-c3ccnc4[nH]ncc34)c(-c3ccc(F)cn3)nn2C1 (stereo not drawn) [Example 484, 2-(5-Fluoropyridin-2-yl)-7-methyl-3-(1H-pyrazolo[3,4-b]pyridin-4-yl)-7,8-dihydro-4H,6H-pyrazolo[5,1-c][1,4]oxazepin-7-ol]
3	1	Fc1ccc(-c2nn3c(c2-c2c(F)cnc4[nH]ncc24)C[C@H](F)C3)cc1 [Example 227, 5-Fluoro-4-[(5S)-5-fluoro-2-(4-fluorophenyl)-5,6-dihydro-4H-pyrrolo[1,2-b]pyrazol-3-yl]-1H-pyrazolo[3,4-b]pyridine]
482	54	Fc1cc(-c2nn3c(c2-c2ccnc4[nH]ncc24)COCC3)ccc1Cl [Example 72, 2-(4-Chloro-3-fluoro-phenyl)-3-(1H-pyrazolo[3,4-b]pyridin-4-yl)-6,7-dihydro-4H-pyrazolo[5,1-c][1,4]oxazine]
11	3	CC(C)C(=O)Nc1cc(-c2c(-c3ccc(F)cn3)nn3c2COC(C)(C)C3)ccn1 [Example 132, N-(4-(2-(5-Fluoropyridin-2-yl)-6,6-dimethyl-6,7-dihydro-4H-pyrazolo[5,1-c][1,4]oxazin-3-yl)pyridin-2-yl)isobutyramide]
6	1	C[C@@H]1n2nc(-c3ccc(F)cc3)c(-c3ccnc4[nH]ncc34)c2COC1(C)C (single isomer, unassigned) [Example 171]
